Measurements from patent publication US20230407243A1, “GENETIC PLATFORM TO INVESTIGATE THE FUNCTIONS OF BACTERIAL DRUG EFFLUX PUMPS” (priority 2022, published 2023).
Where two headings read alike, the source gives them in different places.

Assays:
Assay type in all cases: cell-based, Escherichia coli
[1] = tested on: EKO-35 araC::acrB Pore; assay: MIC susceptibility profiling, porinated efflux platform; details: for Fold changes of MICs: EKO-35 araC::acr-B Pore compared to EKO-35-Pore
Method in brief: (§1)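 Strains carry the fhuA ΔC/Δ4L pore integrated between glmS and pstS under a constitutive promoter, with pore activity checked by vancomycin susceptibility. Overnight LB cultures were adjusted in PBS pH 7.4 to OD600 ~1.0 and diluted 1/2000 into MHB II. 2-fold compound titrations were read by OD600 after 18 h at 37 °C.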

[2] = tested on: EKO-35 araC::mdtEF Pore; assay: as above; details: for Fold changes of MICs: EKO-35 araC::mdtEF Pore compared to EKO-35-Pore; for MIC: Escherichia coli, Table 14A, porinated, technical duplicate, read-out: Minimum inhibitory concentration, EKO-35 araC::mdtEF Pore
Method in brief: as §1

[3] = tested on: EKO-35 araC::mdtBC Pore; assay: as above; details: for Fold changes of MICs: EKO-35 araC::mdtBC Pore compared to EKO-35-Pore; for MIC: Escherichia coli, EKO-35 araC::mdtBC Pore, technical duplicate, read-out: Minimum inhibitory concentration
Method in brief: as §1

[4] = tested on: ΔtolC-Pore; assay: microbe, parasite or virus in culture; details: for MIC: Escherichia coli, 18 h, read-out: Minimum inhibitory concentration, ΔtolC-Pore; for Minimum inhibitory concentration (MIC), Pore ΔtolC: Table 10, with pore, technical duplicate
Method in brief: as §1

[5] = tested on: wild-type (WT) K-12-Pore; assay: microbe, parasite or virus in culture; details: Escherichia coli, technical duplicate
Method in brief: as §1

[6] = tested on: EKO-35-Pore; assay: MIC susceptibility profiling, porinated strain; details: for Fold changes of MICs: EKO-35-Pore compared to EKO-35-Pore (reference); for MIC: Escherichia coli, technical duplicate
Method in brief: as §1

[7] = tested on: E. coli EKO-35; assay: microbe, parasite or virus in culture; details: for Fold change of MICs: EKO-35 compared to EKO-35 (reference); for MIC: Escherichia coli, EKO35, technical duplicate
Method in brief: (§2)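 MHB II broth microdilution; inoculum from 18 h LB culture, PBS-adjusted to OD600 ~1.0, then 1/2000 dilution. Compounds 2-fold titrated, duplicates, DMSO solvent control. 18 h, 37 °C, 900 rpm; background-corrected OD600 end point.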

[8] = tested on: E. coli ΔtolC; assay: microbe, parasite or virus in culture; details: for MIC: Escherichia coli, 18 h, read-out: Minimum Inhibitory Concentration, ΔtolC; for Minimum inhibitory concentration (MIC), ΔtolC: Table 10, without pore, technical duplicate
Method in brief: as §2

[9] = tested on: wild-type E. coli K-12 str. BW25113; assay: microbe, parasite or virus in culture; details: Escherichia coli, BW25113, technical duplicate
Method in brief: as §2

[10] = tested on: EKO-35 araC::acrD; assay: MIC susceptibility profiling, efflux platform; details: for Fold change of MICs: EKO-35 araC::acrD compared to EKO-35; for MIC: Escherichia coli, Table 13A, non-porinated, technical duplicate, read-out: Minimum Inhibitory Concentration, EKO-35 araC::acrD
Method in brief: as §2

[11] = tested on: EKO-35 araC::emrAB; assay: MIC susceptibility profiling, efflux platform; details: for Fold change of MICs: EKO-35 araC::emrAB compared to EKO-35; for MIC: Escherichia coli, Table 13B, non-porinated, technical duplicate, read-out: Minimum Inhibitory Concentration, EKO-35 araC::emrAB
Method in brief: as §2

[12] = tested on: EKO-35 araC::acrEF; assay: MIC susceptibility profiling, efflux platform; details: EKO-35 araC::acrEF compared to EKO-35
Method in brief: as §2

[13] = tested on: EKO-35 araC::acrB; assay: MIC susceptibility profiling, efflux platform; details: for Fold change of MICs: EKO-35 araC::acrB compared to EKO-35
Method in brief: as §2

[14] = tested on: EKO-35 araC::mdtEF; assay: MIC susceptibility profiling, efflux platform; details: for Fold change of MICs: EKO-35 araC::mdtEF compared to EKO-35; for MIC: Escherichia coli, Table 13A, non-porinated, technical duplicate, read-out: Minimum Inhibitory Concentration, EKO-35 araC::mdtEF
Method in brief: as §2

[15] = tested on: EKO-35 araC::emrKY; assay: MIC susceptibility profiling, efflux platform; details: for MIC: Escherichia coli, Table 13B, non-porinated, technical duplicate, read-out: Minimum Inhibitory Concentration, EKO-35 araC::emrKY
Method in brief: as §2

[16] = tested on: EKO-35 araC::macAB; assay: MIC susceptibility profiling, efflux platform; details: for Fold change of MICs: EKO-35 araC::macAB compared to EKO-35; for MIC: Escherichia coli, Table 13B, non-porinated, technical duplicate, read-out: Minimum Inhibitory Concentration, EKO-35 araC::macAB
Method in brief: as §2

[17] = tested on: EKO-35 araC::mexCD (MexCD from P. aeruginosa); assay: MIC susceptibility profiling, efflux platform; details: for Fold change of MICs: EKO-35 araC::mexCD compared to EKO-35; for MIC: Table 13B, non-porinated, technical duplicate, read-out: Minimum Inhibitory Concentration, EKO-35 araC::mexCD
Method in brief: as §2

[18] = tested on: EKO-35 araC::acrBD408A; assay: MIC susceptibility profiling, efflux platform; details: for Fold change of MICs: EKO-35 araC::acrBD408A compared to EKO-35; for MIC: Escherichia coli, Table 13B, non-porinated, technical duplicate, read-out: Minimum Inhibitory Concentration, EKO-35 araC::acrBD408A
Method in brief: as §2

[19] = tested on: EKO-35 araC::mdtBC; assay: MIC susceptibility profiling, efflux platform; details: for Fold change of MICs: EKO-35 araC::mdtBC compared to EKO-35; for MIC: Escherichia coli, Table 13B, non-porinated, technical duplicate, read-out: Minimum Inhibitory Concentration, EKO-35 araC::mdtBC
Method in brief: as §2

[20] = Table 10, with pore, read-out: Minimum inhibitory concentration (MIC), Pore K-12
[21] = Table 14A, porinated, read-out: Minimum inhibitory concentration, K-12 (WT)-Pore
[22] = Table 10, with pore, read-out: Minimum inhibitory concentration (MIC), Pore EKO-35
[23] = Table 14A, porinated, read-out: Minimum inhibitory concentration, EKO-35-Pore
[24] = Table 10, without pore, read-out: Minimum inhibitory concentration (MIC), EKO-35
[25] = Table 13A, non-porinated, read-out: Minimum Inhibitory Concentration, EKO-35
[26] = Table 10, without pore, read-out: Minimum inhibitory concentration (MIC), K-12
[27] = Table 13A, non-porinated, read-out: Minimum Inhibitory Concentration, K-12

CCn1cc(C(=O)O)c(=O)c2ccc(C)nc21 [nalidixic acid]
Fold changes of MICs [1]: 8 fold
MIC ([1]; Escherichia coli, Table 14A, porinated, technical duplicate, read-out: Minimum inhibitory concentration, EKO-35 araC::acrB Pore): 10 µg/mL
Fold changes of MICs [2]: 1 fold
MIC [2]: 1.25 µg/mL
Fold changes of MICs [3]: 1 fold
MIC [3]: 1.25 µg/mL
MIC [4]: 1.25 µg/mL
Minimum inhibitory concentration (MIC), Pore ΔtolC [4]: 1.25 µg/mL
MIC [5, 20]: 5 µg/mL
MIC [5, 21]: 5 µg/mL
Fold changes of MICs [6]: 1 fold
MIC [6, 22]: 1.25 µg/mL
MIC [6, 23]: 1.25 µg/mL
Fold change of MICs [7]: 1 fold
MIC [7, 24]: 1.25 µg/mL
MIC [7, 25]: 1.25 µg/mL
MIC [8]: 1.25 µg/mL
Minimum inhibitory concentration (MIC), ΔtolC [8]: 1.25 µg/mL
MIC [9, 26]: 10 µg/mL
MIC [9, 27]: 10 µg/mL
Fold change of MICs [10]: 2 fold
MIC [10]: 2.5 µg/mL
Fold change of MICs [11]: 8 fold
MIC [11]: 10 µg/mL
Fold change of MICs [12]: 4 fold
Fold change of MICs [13]: 8 fold
MIC ([13]; Escherichia coli, Table 13A, non-porinated, technical duplicate, read-out: Minimum Inhibitory Concentration, EKO-35 araC::acrB): 10 µg/mL
Fold change of MICs [14]: 1 fold
MIC [14]: 1.25 µg/mL
Fold change of MICs ([15]; EKO-35 araC::emrKY compared to EKO-35): 1 fold
MIC [15]: 1.25 µg/mL
Fold change of MICs [16]: 1 fold
MIC [16]: 1.25 µg/mL
Fold change of MICs [17]: 2 fold
MIC [17]: 2.5 µg/mL
Fold change of MICs [18]: 1 fold
MIC [18]: 1.25 µg/mL
Fold change of MICs [19]: 1 fold
MIC [19]: 1.25 µg/mL

CCn1cc(C(=O)O)c(=O)c2cc(F)c(N3CCNCC3)cc21 [norfloxacin]
Fold changes of MICs [1]: 8 fold
Fold changes of MICs [2]: 2 fold
MIC [2]: 0.02 µg/mL
Fold changes of MICs [3]: 2 fold
MIC [3]: 0.02 µg/mL
MIC [4]: 0.01 µg/mL
Minimum inhibitory concentration (MIC), Pore ΔtolC [4]: 0.010 µg/mL
MIC [5, 20]: 0.078 µg/mL
MIC [5, 21]: 0.078 µg/mL
Fold changes of MICs [6]: 1 fold
MIC [6, 22]: 0.01 µg/mL
MIC [6, 23]: 0.01 µg/mL
Fold change of MICs [7]: 1 fold
MIC [7, 24]: 0.02 µg/mL
MIC [7, 25]: 0.02 µg/mL
MIC [8]: 0.02 µg/mL
Minimum inhibitory concentration (MIC), ΔtolC [8]: 0.020 µg/mL
MIC [9, 26]: 0.078 µg/mL
MIC [9, 27]: 0.078 µg/mL
Fold change of MICs [10]: 1 fold
MIC [10]: 0.02 µg/mL
Fold change of MICs [11]: 1 fold
MIC [11]: 0.02 µg/mL
Fold change of MICs [12]: 4 fold
Fold change of MICs [13]: 4 fold
Fold change of MICs [14]: 1 fold
MIC [14]: 0.02 µg/mL
MIC [15]: 0.01 µg/mL
Fold change of MICs [16]: 1 fold
MIC [16]: 0.02 µg/mL
Fold change of MICs [17]: 2 fold
MIC [17]: 0.039 µg/mL
Fold change of MICs [18]: 1 fold
MIC [18]: 0.02 µg/mL
Fold change of MICs [19]: 1 fold
MIC [19]: 0.02 µg/mL
